From patent US10512627B2, “Anti-tumor compound and the medical use thereof” (Tianjin Medical University Cancer Institute and Hospital, priority 2014, dated 2019) come the findings set out here.

The subject of test [1] is human breast cancer cells MDA-MB-231. The test can be described thus: Scratching assay, migration of MDA-MB-231 (Example 14). It counts as cell-based. The following applies: 20 μmol/L, 0-24 h. On the procedure:
The inhibiting ability of 2-(4′-methyl-3′-nitrobenzoylamino)-3-indolylpropionic acid (TCI05), 2-(4′-methyl-3′-nitrobenzoylamino)-3-(4-hydroxy-phenyl) propionic acid (TCI06), 2-(4′-methyl-3′-nitrobenzenemethoxycarbonyl)-3-phenylpropionic acid (TCI07), 2-(4′-methyl-3′-nitrobenzenemethoxycarbonyl)-3-indolylpropionic acid (TCI08) for the migration of human breast cancer cells MDA-MB-231 was tested by scratching assay.
The MDA-MB-231 cells in logarithmic growth phase were seeded in the 6-well plate at a density of 1×10^6/3 ml, and 12 h later, TCI05, TCI06, TCI07, TCI08 (formulation was the same as TCI04) was added, 150 μl per well, with the final concentration of 20 μmol/L. The negative control was 150 μL sterilized water with 2% DMSO. 48 h later, 200 ul tips were used to scratch, and after washing 4 times with PBS, 3 ml medium without fetal bovine serum was added per well. Under the inverted microscope, the distance of cell migration was recorded every 3 h, and photos were taken at 0 h and 24 h.

Test [2] deals with human breast cancer cell MDA-MB-231. The test can be described thus: Scratching assay, migration of MDA-MB-231 (Example 16). In kind it is cell-based. Conditions: for average (scratch assay distance): control 13.1667. As for the experimental part: The inhibiting ability of 4-hydroxy-3-nitrobenzoic acid and 4-amino-3nitrobenzoic acid for the migration of human breast cancer cell MDA-MB-231 was tested by scratching assay.
Three lines were marked on the underside of 6-well plate, MDA-MB-231 breast cancer cells in logarithmic growth phase were digested with 0.7 mL 0.08% trypsin for 1 min, and the digestion was stopped with complete culture medium. After centrifugation at 1000 r/min for 3 min, the supernatant was discarded, then 3 mL complete culture medium was added. After pipetting to make suspension of single cell, the cells in the cell suspension was counted, and the concentration of the cells was adjusted to a density of 5×10^5 cells/well to plate the 6 wells plate, and 6 groups of drugs containing complete culture medium (DMEM+10% FBS+1% Penicillin-Streptomycin+drug) were added. After culturing in a incubator for 12 h until the cells were attached, the culture medium was removed, 20 μL tips were used to scratch vertically to the three transverse lines on the underside to obtain 6 distances for counting, and after washing with phosphate buffered saline (PBS) three times, 6 groups of drugs containing culture medium without FBS (DMEM+drug) were added respectively, and the width of the scratches were observed and recorded at 0 h, 3 h, 6 h, 9 h, 12 h and 24 h under inverted microscope, with 6 distances being recorded per well, wherein, photos were taken with inverted microscope at 0 h and 24 h for recording.

The test system of the next test is MDA-MB-231 cells. The test can be described thus: MTT assay, synergistic effect with Paclitaxel (Example 12). Conditions: Homo sapiens. In kind it is cell-based, human. As for the experimental part:
Synergistic effects of (S)2-(4′-methyl-3′-nitrobenzoylamino)-3-phenylpropionic acid and Paclitaxel was tested by MTT assay.
1) The MDA-MB-231 cells in logarithmic growth phase were seeded in the 96-well plate at a density of 4×10^3/0.2 ml. After culturing for 12 h, 10 μl Paclitaxel solution was added, with the final concentration of 0, 0.001, 0.01, 0.1, 1, 10, 50, 100, 200 μM, then 10 μL (S)2-(4′-methyl-3′-nitrobenzoylamino)-3-phenylpropionic acid PBS solution was add to half of the wells for each group with the final concentration of 20 μM, followed by continuous culturing for 24 or 48 h.
2) 5 mg/mL MTT solution was prepared with sterilized PBS, filtered with 0.22 μm film, and diluted with medium to 1 mg/mL. After discarding the medium in the 96-well plate, 100 μL 1 mg/mL MTT working solution was added, followed by continuous culturing for 5 h.
3) MTT working solution was discarded, and 150 μL DMSO was added per well (note: to away from light). The plate was shaken on a horizontal shaker at 170 rpm for 10 min, and then the absorbance at 490 nm was detected by microplate reader.
(Formazan colour is commonly taken as a measure of viable cells.)

In the next test the test system is 4T1-luciferase cells. The test can be described thus: In situ model of breast cancer in nude mouse, lung metastasis by in vivo imaging (Example 7). On the set-up: species or system nude mice. Conditions: 50 mg/kg tail vein, twice a day, 21 days; P<0.01. As for the experimental part:
4) An in situ breast cancer model is constructed by in situ inoculating nude mice with 4T1 cells which are stably transfected with Luciferase, and the number of metastatic tumors on the lung is detected by in vivo imaging system. Such a model mimics the occurrence and metastasis of breast cancer.
The ability of (S)2-(4′-methyl-3′-nitrobenzoylamino)-3-phenylpropionic acid for inhibiting tumor metastasis in vivo was tested by in situ model of breast cancer in nude mouse.
1) Mice grouping: Nude female mice of SPF grade, 5 weeks old, 18˜22 g, 8 mice for each group;
2) The mother liquid of (S)2-(4′-methyl-3′-nitrobenzoylamino)-3-phenylpropionic acid (TCI04) for the dosage form administrated by intravenous injection was diluted to 2 mg/mL, 0.1 mg/mL by adding sterilized water. The dosage for administration in mice was as follows, high dosage of 20 mg/kg; low dosage of 1 mg/kg. […]
3) 4T1-luciferase cells in logarithmic growth phase were digested with 0.05% typsine for 1 min, after centrifugation at 1000 rpm for 5 min, the supernatant was discarded and the cells were resuspended and counted. […]
5) After the completion of the administration, the mice were detected by in vivo imaging system for the condition of tumor metastasis and immediately sacrificed; the lungs alone were detected by the in vivo imaging system for the light intensity to determine the number of tumor metastasis.

Where two headings read alike, the source gives them in different places.

As to “2-(4′-methyl-3′-nitrobenzoylamino)-3-indolyl propionic acid [TCI05]”, the “inhibition of migration ability (coalescence speed of cell scratch vs negative control)” value in test [1] is “obviously inhibit”.

Consider `Nc1ccc(C(=O)O)cc1[N+](=O)[O-]` [4-amino-3-nitrobenzoic acid], for which, in test [2], the “inhibition of migration ability (coalescence speed of cell scratch vs negative control)” value was “obviously inhibit” and the “average (scratch assay distance)” value was 8.1667 10^−2 mm.

`O=C(O)c1ccc(O)c([N+](=O)[O-])c1` [4-hydroxy-3-nitrobenzoic acid]: in test [2], the “inhibition of migration ability (coalescence speed of cell scratch vs negative control)” value is on record as “obviously inhibit” and the “average (scratch assay distance)” value is 8 10^−2 mm.

Consider `CC(=O)O[C@H]1C(=O)[C@@]2(C)[C@H]([C@H](OC(=O)c3ccccc3)[C@]3(O)C[C@H](OC(=O)[C@H](O)[C@@H](NC(=O)c4ccccc4)c4ccccc4)C(C)=C1C3(C)C)[C@]1(OC(C)=O)CO[C@@H]1C[C@@H]2O` [Paclitaxel], for which the half-inhibitory concentration (IC50) was 395 nM in the test with MDA-MB-231 cells (MDA-MB-231, 24 h, Paclitaxel + 20 μM (S)2-(4′-methyl-3′-nitrobenzoylamino)-3-phenylpropionic acid, read-out: IC50 after 24 h); 3970 nM with MDA-MB-231 cells (MDA-MB-231, 24 h, Paclitaxel alone, read-out: IC50 after 24 h); 46 nM with MDA-MB-231 cells (MDA-MB-231, 48 h, Paclitaxel + 20 μM (S)2-(4′-methyl-3′-nitrobenzoylamino)-3-phenylpropionic acid, read-out: IC50 after 48 h); 512 nM in the test with MDA-MB-231 cells (MDA-MB-231, 48 h, Paclitaxel alone, read-out: IC50 after 48 h).

For the compound `Cc1ccc(C(=O)O)cc1[N+](=O)[O-]` [TCI01, 4-methyl-3-nitrobenzoic acid, reference compound], in the test with 4T1-luciferase cells, the “light intensity of the whole lung vs negative control” value was “significantly weaker than the negative control”.

Regarding `Cc1ccc(C(=O)NC(Cc2ccc(O)cc2)C(=O)O)cc1[N+](=O)[O-]` (stereo not shown) [TCI06, 2-(4′-methyl-3′-nitrobenzoylamino)-3-(4-hydroxy-phenyl)propionic acid], the “inhibition of migration ability (coalescence speed of cell scratch vs negative control)” value in test [1] was “obviously inhibit”.

For `Cc1ccc(COC(=O)C(Cc2ccccc2)C(=O)O)cc1[N+](=O)[O-]` (stereo not shown) [TCI07, 2-(4′-methyl-3′-nitrobenzenemethoxycarbonyl)-3-phenylpropionic acid], in test [1], the “inhibition of migration ability (coalescence speed of cell scratch vs negative control)” value is on record as “obviously inhibit”.

Take `Cc1ccc(COC(=O)C(Cc2c[nH]c3ccccc23)C(=O)O)cc1[N+](=O)[O-]` (stereo not shown) [TCI08, 2-(4′-methyl-3′-nitrobenzenemethoxycarbonyl)-3-indolylpropionic acid]: in test [1], the “inhibition of migration ability (coalescence speed of cell scratch vs negative control)” value was “obviously inhibit”.

The term IC50 denotes the concentration at which inhibition is half-maximal.
